Tested on: lymphocytic leukemia P388
Test: Lymphocytic Leukemia P388 Test
Assay type: in vivo, BDF1 mice
Conditions: for response vs control in vivo at 0.75 mg/kg / response vs control in vivo at 1.5 mg/kg / response vs control in vivo at 3 mg/kg: Mus musculus, P388, ip, read-out: T/C × 100 (%); for Median Survival: BDF1 mice; for T/C × 100 (%): ratio of survival time treated/control
Method in brief: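 BDF1 mice (5–6 per group) were inoculated i.p. with 10^6 P388 cells, then dosed i.p. on days 1, 5 and 9 at various doses. Survival was followed for 60 days, and median survival time and the treated/control (T/C) survival ratio were calculated.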

[1] = dose 0.75 mg/kg intraperitoneally on days 1, 5 and 9
[2] = dose 1.5 mg/kg intraperitoneally on days 1, 5 and 9
[3] = dose 3 mg/kg intraperitoneally on days 1, 5 and 9

SMILES	response vs control in vivo at 0.75 mg/kg	response vs control in vivo at 1.5 mg/kg	response vs control in vivo at 3 mg/kg	Median Survival [1]	Median Survival [2]	Median Survival [3]	T/C × 100 (%) [1]	T/C × 100 (%) [2]	T/C × 100 (%) [3]
CC(C)C[C@H](NC(=O)[C@H](C)NC(=O)[C@H](C)NC(=O)OC(C)(C)C)C(=O)NCCNc1ccc(NCCNC(=O)[C@H](CC(C)C)NC(=O)[C@H](C)NC(=O)[C@H](C)NC(=O)OC(C)(C)C)c2c1C(=O)c1c(O)ccc(O)c1C2=O [Example 67, N,N'-[(9,10-Dihydro-5,8-dihydroxy-9,10-dioxo-1,4-anthracenediyl)bis(imino-2,1-ethanediyl)]bis[N-[(1,1-dimethylethoxy)carbonyl]-L-alanyl-L-alanyl-L-leucinamide]]	155%	165%	160%	15.5 days	16.5 days	16.0 days			
CC(C)C[C@H](NC(=O)[C@H](C)NC(=O)[C@H](C)N)C(=O)NCCNc1ccc(NCCNC(=O)[C@H](CC(C)C)NC(=O)[C@H](C)NC(=O)[C@H](C)N)c2c1C(=O)c1c(O)ccc(O)c1C2=O.O=C(O)C(F)(F)F.O=C(O)C(F)(F)F [Example 68]				21.0 days	21.5 days	22.0 days	210%	215%	220%
CC(C)C[C@H](NC(=O)CNC(=O)CNC(=O)OCc1ccccc1)C(=O)NCCNc1ccc(NCCNC(=O)[C@H](CC(C)C)NC(=O)CNC(=O)CNC(=O)OCc2ccccc2)c2c1C(=O)c1c(O)ccc(O)c1C2=O [Example 69, N,N'-[(9,10-Dihydro-5,8-dihydroxy-9,10-dioxo-1,4-anthracenediyl)bis(imino-2,1-ethanediyl)]bis[N-[(phenylmethoxy)carbonyl]glycylglycyl-L-leucinamide]]	170%	170%	180%	17.0 days	17.0 days	18.0 days			
Br.Br.CC(C)C[C@H](NC(=O)CNC(=O)CN)C(=O)NCCNc1ccc(NCCNC(=O)[C@H](CC(C)C)NC(=O)CNC(=O)CN)c2c1C(=O)c1c(O)ccc(O)c1C2=O [Example 70, N,N'-[(9,10-Dihydro-5,8-dihydroxy-9,10-dioxo-1,4-anthracenediyl)bis(imino-2,1-ethanediyl)]bis[glycylglycyl-L-leucinamide]dihydrobromide]				22.0 days	22.5 days	44.5 days	220%	225%	445%
C[C@H](N)C(=O)N[C@@H](C)C(=O)N[C@@H](C)C(=O)NCCNc1ccc(NCCNC(=O)[C@H](C)NC(=O)[C@H](C)NC(=O)[C@H](C)N)c2c1C(=O)c1c(O)ccc(O)c1C2=O.O=C(O)C(F)(F)F.O=C(O)C(F)(F)F [Example 73, N,N'-[(9,10-Dihydro-5,8-dihydroxy-9,10-dioxo-1,4-anthracenediyl)bis(imino-2,1-ethanediyl)]bis[L-alanyl-L-alanyl-L-alanine]bis(trifluoroacetate)]				21.0 days	24.5 days	40.0 days	200%	233%	381%
C[C@H](NC(=O)[C@H](CO)NC(=O)OC(C)(C)C)C(=O)NCCNc1ccc(NCCNC(=O)[C@H](C)NC(=O)[C@H](CO)NC(=O)OC(C)(C)C)c2c1C(=O)c1c(O)ccc(O)c1C2=O [Example 75]				18.5 days	19.0 days	21.0 days	154%	158%	175%
C[C@H](NC(=O)[C@@H](N)CO)C(=O)NCCNc1ccc(NCCNC(=O)[C@H](C)NC(=O)[C@@H](N)CO)c2c1C(=O)c1c(O)ccc(O)c1C2=O.O=C(O)C(F)(F)F.O=C(O)C(F)(F)F [Example 76, N,N'-[(9,10-Dihydro-5,8-dihydroxy-9,10-dioxo-1,4-anthracenediyl)bis(imino-2,1-ethanediyl)]bis[L-seryl-L-alaninamide]bis(trifluoroacetate)]				22.0 days	22.5 days	22.5 days	183%	188%	188%
C[C@H](NC(=O)[C@H](CO)NC(=O)[C@H](CC(=O)OC(C)(C)C)NC(=O)OCC1c2ccccc2-c2ccccc21)C(=O)NCCNc1ccc(NCCNC(=O)[C@H](C)NC(=O)[C@H](CO)NC(=O)[C@H](CC(=O)OC(C)(C)C)NC(=O)OCC2c3ccccc3-c3ccccc32)c2c1C(=O)c1c(O)ccc(O)c1C2=O [Example 77, N,N'-[(9,10-Dihydro-5,8-dihydroxy-9,10-dioxo-1,4-anthracenediyl)bis(imino-2,1-ethanediyl)]bis[N-[(9H-fluoren-9-ylmethoxy)carbonyl]-L-α-aspartyl-L-seryl-L-alaninamide]bis(1,1-dimethylethyl)ester]				20.0 days	20.0 days	22.5 days	167%	167%	188%
C[C@H](NC(=O)[C@H](CO)NC(=O)[C@@H](N)CC(=O)OC(C)(C)C)C(=O)NCCNc1ccc(NCCNC(=O)[C@H](C)NC(=O)[C@H](CO)NC(=O)[C@@H](N)CC(=O)OC(C)(C)C)c2c1C(=O)c1c(O)ccc(O)c1C2=O [Example 78, N,N'-[(9,10-Dihydro-5,8-dihydroxy-9,10-dioxo-1,4-anthracenediyl)bis(imino-2,1-ethanediyl)]bis[L-α-aspartyl-L-seryl-L-alaninamide]bis(1,1-dimethylethyl)ester]				18.0 days	23.0 days	22.5 days	150%	192%	188%
C[C@H](NC(=O)[C@H](C)NC(=O)[C@H](CC(=O)OC(C)(C)C)NC(=O)OCC1c2ccccc2-c2ccccc21)C(=O)NCCNc1ccc(NCCNC(=O)[C@H](C)NC(=O)[C@H](C)NC(=O)[C@H](CC(=O)OC(C)(C)C)NC(=O)OCC2c3ccccc3-c3ccccc32)c2c1C(=O)c1c(O)ccc(O)c1C2=O [Example 79, N,N'-[(9,10-Dihydro-5,8-dihydroxy-9,10-dioxo-1,4-anthracenediyl)bis(imino-2,1-ethanediyl)]bis[N-[(9H-fluoren-9-ylmethoxy)carbonyl]-L-α-aspartyl-L-alanyl-L-alaninamide]bis(1,1-dimethylethyl)ester]				18.5 days	18.0 days	19.0 days	168%	164%	173%
CC(NC(=O)C(N)CC(=O)OC(C)(C)C)C(=O)NC(C)C(=O)NCCNc1ccc(NCCNC(=O)C(C)NC(=O)C(C)NC(=O)C(N)CC(=O)OC(C)(C)C)c2c1C(=O)c1c(O)ccc(O)c1C2=O [Example 80, N,N'-[(9,10-Dihydro-5,8-dihydroxy-9,10-dioxo-1,4-anthracenediyl)bis(imino-2,1-ethanediyl)]bis[L-α-aspartyl-L-alanyl-L-alaninamide]bis(1,1-dimethylethyl)ester]				19.0 days	19.5 days	26.0 days	173%	177%	236%
CC(C)C[C@H](NC(=O)[C@H](C)NC(=O)[C@H](CC(=O)OC(C)(C)C)NC(=O)OCC1c2ccccc2-c2ccccc21)C(=O)NCCNc1ccc(NCCNC(=O)[C@H](CC(C)C)NC(=O)[C@H](C)NC(=O)[C@H](CC(=O)OC(C)(C)C)NC(=O)OCC2c3ccccc3-c3ccccc32)c2c1C(=O)c1c(O)ccc(O)c1C2=O [Example 81, N,N'-[(9,10-Dihydro-5,8-dihydroxy-9,10-dioxo-1,4-anthracenediyl)bis(imino-2,1-ethanediyl)]bis[N-[(9H-fluoren-9-ylmethoxy)carbonyl]-L-α-aspartyl-L-alanyl-L-leucinamide]bis(1,1-dimethylethyl)ester]				16.0 days	18.5 days	19.0 days	145%	168%	173%
CC(C)C[C@H](NC(=O)[C@H](C)NC(=O)[C@@H](N)CC(=O)OC(C)(C)C)C(=O)NCCNc1ccc(NCCNC(=O)[C@H](CC(C)C)NC(=O)[C@H](C)NC(=O)[C@@H](N)CC(=O)OC(C)(C)C)c2c1C(=O)c1c(O)ccc(O)c1C2=O [Example 82, N,N'-[(9,10-Dihydro-5,8-dihydroxy-9,10-dioxo-1,4-anthracenediyl)bis(imino-2,1-ethanediyl)]bis[L-α-aspartyl-L-alanyl-L-leucinamide]bis(1,1-dimethylethyl)ester]				21.0 days	19.0 days	19.0 days	191%	173%	173%
C[C@H](NC(=O)[C@H](C)NC(=O)[C@@H](N)CC(=O)O)C(=O)NCCNc1ccc(NCCNC(=O)[C@H](C)NC(=O)[C@H](C)NC(=O)[C@@H](N)CC(=O)O)c2c1C(=O)c1c(O)ccc(O)c1C2=O.O=C(O)C(F)(F)F.O=C(O)C(F)(F)F [Example 83]				22.0 days	22.5 days	38.5 days	220%	225%	385%

Source: patent publication US4732970A, “Antitumor amino acid and peptide derivatives of 1,4-bis(aminoalkyl and hydroxy-aminoalkyl)amino)-5,8-dihydroxyanthraquinones” (priority 1986, dated 1988)
